Results from patent US20240116985A1, “STAPLED PEPTIDES AND METHODS THEREOF” (priority 2020, published 2024).

Experiments:
[1] = target: T1, beta-catenin/TCF4 engagement (Homo sapiens, UniProt P35222); test: Nano-BRET target engagement assay (B-cat-Halo & TCF4-Luc in HEK293 cells); format: cell-based; conditions: absolute IC50; read-out: NanoBRET Abs IC50
T1 construct: expressed in transfected cells; host or cells: HEK293
T1 sequence (P35222 1-781): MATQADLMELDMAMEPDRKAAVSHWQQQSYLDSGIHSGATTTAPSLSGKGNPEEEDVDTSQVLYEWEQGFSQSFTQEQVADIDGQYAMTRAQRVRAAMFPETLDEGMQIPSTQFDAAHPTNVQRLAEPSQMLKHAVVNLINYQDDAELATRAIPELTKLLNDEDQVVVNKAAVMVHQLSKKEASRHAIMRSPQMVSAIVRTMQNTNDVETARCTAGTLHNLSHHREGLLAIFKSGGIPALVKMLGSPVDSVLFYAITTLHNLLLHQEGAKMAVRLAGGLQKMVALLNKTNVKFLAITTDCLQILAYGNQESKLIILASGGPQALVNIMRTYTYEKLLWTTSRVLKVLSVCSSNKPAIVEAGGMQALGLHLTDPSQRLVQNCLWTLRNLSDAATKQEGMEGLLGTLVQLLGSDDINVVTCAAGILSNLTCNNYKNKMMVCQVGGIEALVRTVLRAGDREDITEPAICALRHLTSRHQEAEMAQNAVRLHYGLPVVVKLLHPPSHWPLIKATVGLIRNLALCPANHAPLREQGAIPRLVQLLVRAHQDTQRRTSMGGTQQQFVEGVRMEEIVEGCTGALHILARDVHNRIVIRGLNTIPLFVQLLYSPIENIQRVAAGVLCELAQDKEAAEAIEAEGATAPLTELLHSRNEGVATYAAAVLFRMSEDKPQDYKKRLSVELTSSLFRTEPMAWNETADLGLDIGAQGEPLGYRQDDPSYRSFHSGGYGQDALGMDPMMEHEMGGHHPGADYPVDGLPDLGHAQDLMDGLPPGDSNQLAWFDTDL

[2] = target: T2, full-length beta-Catenin (Uniprot ID P35222) (Homo sapiens, UniProt P35222); test: Fluorescence polarization IC50 (beta-catenin / 5FAM-TCF4 10-53 competition); format: binding; conditions: fluorescence polarization; read-out: beta-Catenin FP IC50
T2 construct: 10 nM full-length beta-Catenin (Uniprot ID P35222)
T2 sequence (P35222 1-781): T1 sequence (P35222 1-781)

Row | IC50 [1] [nM] | IC50 [2] [nM] | Structure (SMILES)
1 | > 20000 | 304 | CC(=O)N1CCC[C@]12CC=CCCCC1(CCCC=CCCCOC(=O)N3CC[C@@](C(=O)N[C@@H](Cc4ccsc4)C(=O)N[C@@H](Cc4csc5ccccc45)C(=O)N[C@@H](CCC(N)=O)C(N)=O)(C3)NC(=O)[C@H](Cc3c[nH]cn3)NC(=O)[C@H](Cc3ccccc3)NC(=O)[C@H](C)NC(=O)C(C)(C)NC(=O)[C@H]([C@@H](C)O)NC(=O)[C@H](CC(N)=O)NC1=O)NC(=O)[C@H](CC(C)(C)C)NC(=O)[C@H](CC(=O)O)NC2=O (stereo partly drawn) [I-2410, Ac-PL3-Asp-Npg-B5-Asn-Thr-Aib-Ala-Phe-His-PyrS2-3Thi-BztA-Gln-NH2]
2 | > 20000 | 7 | CC(=O)N1CCC[C@]12CC=CCCCC1(CCCC=CCCCOC(=O)N3CC[C@@](C(=O)N[C@@H](Cc4ccsc4)C(=O)N[C@@H](Cc4csc5ccccc45)C(=O)N[C@@H](Cc4c[nH]cn4)C(N)=O)(C3)NC(=O)[C@H](CC(N)=O)NC(=O)[C@H](Cc3ccccc3)NC(=O)[C@H](C)NC(=O)C(C)(C)NC(=O)[C@H]([C@@H](C)O)NC(=O)[C@H](CC(N)=O)NC1=O)NC(=O)[C@H](CC(C)(C)C)NC(=O)[C@H](CC(=O)O)NC2=O (stereo partly drawn) [I-2414, Ac-PL3-Asp-Npg-B5-Asn-Thr-Aib-Ala-Phe-Asn-PyrS2-3Thi-BztA-His-NH2]
3 | > 20000 | 147 | CC(=O)N1CCC[C@]12CC=CCCCC1(CCCC=CCCCOC(=O)N3CC[C@@](C(=O)N[C@@H](Cc4ccsc4)C(=O)N[C@@H](Cc4csc5ccccc45)C(=O)N[C@@H](CC(N)=O)C(N)=O)(C3)NC(=O)[C@H](CC(N)=O)NC(=O)[C@H](Cc3ccccc3)NC(=O)[C@H](C)NC(=O)C(C)(C)NC(=O)[C@H]([C@@H](C)O)NC(=O)[C@H](CC(N)=O)NC1=O)NC(=O)[C@H](CC(C)(C)C)NC(=O)[C@H](CC(=O)O)NC2=O (stereo partly drawn) [I-2415, Ac-PL3-Asp-Npg-B5-Asn-Thr-Aib-Ala-Phe-Asn-PyrS2-3Thi-BztA-Asn-NH2]
4 | 21600 | 158 | CC(=O)N1CCC[C@]12CC=CCCCC1(CCCC=CCCCOC(=O)N3CC[C@@](C(=O)N[C@@H](Cc4ccsc4)C(=O)N[C@@H](Cc4ccc(Cl)c(Cl)c4)C(=O)N[C@@H](CCC(N)=O)C(N)=O)(C3)NC(=O)[C@H](CC(N)=O)NC(=O)[C@H](Cc3ccccc3)NC(=O)[C@H](C)NC(=O)C(C)(C)NC(=O)[C@H]([C@@H](C)O)NC(=O)[C@H](CC(N)=O)NC1=O)NC(=O)[C@H](CC(C)(C)C)NC(=O)[C@H](CC(=O)O)NC2=O (stereo partly drawn) [I-2417, Ac-PL3-Asp-Npg-B5-Asn-Thr-Aib-Ala-Phe-Asn-PyrS2-3Thi-34C1F-Gln-NH2]
5 | > 20000 | 203 | CC(=O)N1CCC[C@]12CC=CCCCC1(CCCC=CCCCOC(=O)N3CC[C@@](C(=O)N[C@@H](Cc4ccccc4)C(=O)N[C@@H](Cc4csc5ccccc45)C(=O)N[C@@H](CCCCN)C(N)=O)(C3)NC(=O)[C@H](CC(C)C)NC(=O)[C@H](Cc3ccccc3)NC(=O)[C@H](C)NC(=O)[C@H](CCO)NC(=O)[C@H](CCC(N)=O)NC(=O)[C@H](CC(=O)O)NC1=O)NC(=O)[C@H](CC1CCCCC1)NC(=O)[C@H](CC(N)=O)NC2=O (stereo partly drawn) [I-2419, Ac-PL3-Asn-Cha-B5-Asp-Gln-Hse-Ala-Phe-Leu-PyrS2-Phe-BztA-Lys-NH2]
6 | > 20000 | 145 | CC(=O)N1CCC[C@]12CC=CCCCC1(CCCC=CCCCOC(=O)N3CC[C@@](C(=O)N[C@@H](Cc4ccccc4)C(=O)N[C@@H](Cc4csc5ccccc45)C(=O)N[C@@H](CCCCN)C(N)=O)(C3)NC(=O)[C@H](CC(C)C)NC(=O)[C@H](Cc3ccccc3)NC(=O)[C@H](C)NC(=O)[C@H](CCC(N)=O)NC(=O)[C@H](CCC(N)=O)NC(=O)[C@H](CC(=O)O)NC1=O)NC(=O)[C@H](CC1CCCCC1)NC(=O)[C@H](CC(N)=O)NC2=O (stereo partly drawn) [I-2421, Ac-PL3-Asn-Cha-B5-Asp-Gln-Gln-Ala-Phe-Leu-PyrS2-Phe-BztA-Lys-NH2]
7 | > 20000 | 10 | CC(=O)N1CCC[C@]12CC=CCCCC1(CCCC=CCCCOC(=O)N3CC[C@@](C(=O)N[C@@H](Cc4ccccc4)C(=O)N[C@@H](Cc4csc5ccccc45)C(=O)N[C@@H](CCCCN)C(N)=O)(C3)NC(=O)[C@H](CC(C)C)NC(=O)[C@H](Cc3ccccc3)NC(=O)[C@H](C)NC(=O)[C@H](CCCCNC(C)C)NC(=O)[C@H](CCC(N)=O)NC(=O)[C@H](CC(=O)O)NC1=O)NC(=O)[C@H](CC1CCCCC1)NC(=O)[C@H](CC(=O)O)NC2=O (stereo partly drawn) [I-2429, Ac-PL3-Asp-Cha-B5-Asp-Gln-iPrLys-Ala-Phe-Leu-PyrS2-Phe-BztA-Lys-NH2]
8 | 4500 | 32 | CC(=O)N1CCC[C@]12CC=CCCCC1(CCCC=CCCCOC(=O)N3CC[C@@](C(=O)N[C@@H](Cc4ccccc4C(F)(F)F)C(=O)N[C@@H](Cc4csc5ccccc45)C(=O)N[C@@H](CCC(N)=O)C(N)=O)(C3)NC(=O)[C@H](CC(C)C)NC(=O)[C@H](Cc3ccccc3)NC(=O)[C@H](C)NC(=O)[C@H](C)NC(=O)[C@H](Cc3cc(C(=O)O)cc(C(C)C)c3)NC(=O)[C@H](CC(=O)O)NC1=O)NC(=O)[C@H](CC(C)(C)C)NC(=O)[C@H](CC(=O)O)NC2=O (stereo partly drawn) [I-2430, Ac-PL3-Asp-Npg-B5-Asp-5iPr3COOHF-Ala-Ala-Phe-Leu-PyrS2-2F3MeF-BztA-Gln-NH2]
9 | 7000 | 33 | CC(=O)N1CCC[C@]12CC=CCCCC1(CCCC=CCCCOC(=O)N3CC[C@@](C(=O)N[C@@H](Cc4ccccc4C(F)(F)F)C(=O)N[C@@H](Cc4csc5ccccc45)C(=O)N[C@@H](C)C(N)=O)(C3)NC(=O)[C@H](CC(C)C)NC(=O)[C@H](Cc3ccccc3)NC(=O)[C@H](C)NC(=O)[C@H](CCC(N)=O)NC(=O)[C@H](Cc3cc(C(=O)O)cc(C(C)C)c3)NC(=O)[C@H](CC(=O)O)NC1=O)NC(=O)[C@H](CC(C)(C)C)NC(=O)[C@H](CC(=O)O)NC2=O (stereo partly drawn) [I-2431, Ac-PL3-Asp-Npg-B5-Asp-5iPr3COOHF-Gln-Ala-Phe-Leu-PyrS2-2F3MeF-BztA-Ala-NH2]
10 | > 20000 | 93 | CC(=O)N1CCC[C@]12CC=CCCCC1(CCCC=CCCCOC(=O)N3CC[C@@](C(=O)N[C@@H](Cc4ccsc4)C(=O)N[C@@H](Cc4csc5ccccc45)C(=O)N[C@@H](CCC(N)=O)C(N)=O)(C3)NC(=O)[C@H](CC(C)C)NC(=O)[C@H](Cc3ccccc3)NC(=O)[C@H](C)NC(=O)[C@H](CCCCNC(C)C)NC(=O)[C@H](CCC(N)=O)NC(=O)[C@H](CC(=O)O)NC1=O)NC(=O)[C@H](CC1CCCCC1)NC(=O)[C@H](CC(N)=O)NC2=O (stereo partly drawn) [I-2446, Ac-PL3-Asn-Cha-B5-Asp-Gln-iPrLys-Ala-Phe-Leu-PyrS2-3Thi-BztA-Gln-NH2]
11 | > 20000 | 84 | CC(=O)N1CCC[C@]12CC=CCCCC1(CCCC=CCCCOC(=O)N3CC[C@@](C(=O)N[C@@H](Cc4ccccc4)C(=O)N[C@@H](Cc4csc5ccccc45)C(=O)N[C@@H](CCC(N)=O)C(N)=O)(C3)NC(=O)[C@H](CC(C)C)NC(=O)[C@H](Cc3ccccc3)NC(=O)[C@H](C)NC(=O)[C@H](CCCCNC(C)C)NC(=O)[C@H]([C@@H](C)O)NC(=O)[C@H](CC(=O)O)NC1=O)NC(=O)[C@H](CC1CCCCC1)NC(=O)[C@H](CC(N)=O)NC2=O (stereo partly drawn) [I-2448, Ac-PL3-Asn-Cha-B5-Asp-Thr-iPrLys-Ala-Phe-Leu-PyrS2-Phe-BztA-Gln-NH2]
12 | > 20000 | 63 | CC(=O)N1CCC[C@]12CC=CCCCC1(CCCC=CCCCOC(=O)N3CC[C@@](C(=O)N[C@@H](Cc4ccccc4)C(=O)N[C@@H](Cc4csc5ccccc45)C(=O)N[C@@H](CCCCN)C(N)=O)(C3)NC(=O)[C@H](CC(C)C)NC(=O)[C@H](Cc3ccccc3)NC(=O)[C@H](C)NC(=O)[C@H](CCCCNC(C)C)NC(=O)[C@H]([C@@H](C)O)NC(=O)[C@H](CC(=O)O)NC1=O)NC(=O)[C@H](CC1CCCCC1)NC(=O)[C@H](CC(N)=O)NC2=O (stereo partly drawn) [I-2450, Ac-PL3-Asn-Cha-B5-Asp-Thr-iPrLys-Ala-Phe-Leu-PyrS2-Phe-BztA-Lys-NH2]
13 | 8100 | 49 | CC(=O)N1CCC[C@]12CC=CCCCC1(CCCC=CCCCOC(=O)N3CC[C@@](C(=O)N[C@@H](Cc4ccccc4C(F)(F)F)C(=O)N[C@H](C(=O)N[C@@H](CCC(N)=O)C(N)=O)[C@@H](C)c4csc5ccccc45)(C3)NC(=O)[C@H](CC(C)C)NC(=O)[C@H](Cc3ccccc3)NC(=O)[C@H](C)NC(=O)[C@H](C)NC(=O)[C@H](Cc3cccc(C(=O)O)c3)NC(=O)[C@H](CC(=O)O)NC1=O)NC(=O)[C@H](CC(C)(C)C)NC(=O)[C@H](CC(=O)O)NC2=O (stereo partly drawn) [I-2456, Ac-PL3-Asp-Npg-B5-Asp-3COOHF-Ala-Ala-Phe-Leu-PyrS2-2F3MeF-SbMeBztA-Gln-NH2]
